Laboratory results taken from patent US5767113A, “Compounds useful for concurrently activating glucocorticoid-induced response and reducing multidrug resistance” (The Salk Institute For Biological Studies, priority 1995, dated 1998).
Where two headings read alike, the source gives them in different places.

Legend:
[1] = test system: S7dexΓ -1 cells; test: Reversal of puromycin resistance in the S7dex-1 cell line (turbidity at 660 nm); assay type: cell-based, murine
Description: I. Reversal of Puromycin Resistance in the S7dexΓ -1 Cell Line
The S7dexΓ- 1 cell line is a glucocorticoid resistant derivative of the S7CD-5 cell line. It was selected on the basis of its resistance to the glucocorticoid agonist triamcinolone acetonide (5×10^-7 M) from S7CD-5 cells that had been mutagenized with N-methyl-N'-nitro-N-nitrosoguanidine. The apoptic response to glucocorticoid agonists is not elicited in the S7dexΓ -1 cells. Thus, murine S7dexΓ -1 cells were distributed (5×10^4cells/ml, 1 ml/well) into multiwell dishes and incubated for 5 days with 20 μM puromycin and increasing concentrations of test compound. At the end of the incubation period, the turbidity values (at 660 nm) for each set of cultures were measured and expressed relative to cells that were incubated without test compound. These values represent the ability of test compound to reverse S7dexΓ -1 resistance to 20 μM puromycin, as reflected by the relative amount of cell proliferation under a given set of growth conditions. The number of repetitions of each value presented in the first data column of Table 1 are indicated in parenthesis after each entry. In the Table, the ED50 values reflect the concentration of chemosensitizer that causes the Relative Turbidity value to be reduced by 50%.

[2] = test system: murine thymoma W7TB cells; test: Glucocorticoid agonist activity: glucocorticoid-induced apoptosis of murine thymoma W7TB cells (turbidity at 660 nm); assay type: cell-based; settings: Mus musculus, 120 h, 5 days, agonist concentration that reduces Relative Turbidity to 50%, read-out: LD50 ^3
Procedure: FIG. 1 presents the results of an evaluation of the glucocorticoid agonist activity of several steroid analogs. The glucocorticoid-induced apoptosis of murine thymoma W7TB cells was taken as a measure of the agonist activity of steroid analogs. Murine W7TB cells were distributed (5×10^4 cells/ml/well) into multiwell dishes and incubated for 5 days with increasing concentrations of test compound, as indicated in the Figure. At the end of the incubation period, the turbidity values (at 660 nm) for each set of cultures were measured and expressed relative to cells that were incubated without test compound. These values represent the effect of test compound on the relative amount of cell proliferation under a given set of growth conditions. Each value shown in the Figures is the average of 2 separate determinations.
The glucocorticoid agonist activity of several steroid analogs was evaluated by determining the glucocorticoid-induced apoptosis of murine thymoma W7TB cells. Thus, murine W7TB cells were distributed (5×10^4 cells/ml/well) into multiwell dishes and incubated for 5 days with increasing concentrations of test compound, as indicated in FIG. 1. Dichlorisone is 1,4-pregnadiene-9α, 11β-dichloro-17α-21-diol-3,20-dione; "SA 44" is the 3,4-dimethoxy benzoic acid ester of dichlorisone; and "SA 47" is the 4-dimethylamino benzoic acid ester of dichlorisone. "17-DOD" is 17-deoxydexamethasone (i.e., 1,4-pregnadien-9α-fluoro-16αmethyl-11β,21-diol-3,20-dione); "SA 45" is the 4-dimethylamino benzoic acid ester of 17-DOD; and "SA 54" is the N-benzylcarbamate of 17-DOD.
At the end of the incubation period, the turbidity values (at 660 nm) for each set of cultures were measured and expressed relative to cells that were incubated without test compound. These values represent the effect of test compound on the relative amount of cell proliferation under a given set of growth conditions. Each value shown in FIGS. 1A and 1B is the average of 2 separate determinations. Results are also presented in the third data column of Table 1, wherein LD50 values reflect the agonist concentration that causes the Relative Turbidity value to be reduced to 50%.

[3] = test system: CEM/VLB100 cells; test: Reversal of vinblastine resistance in the CEM/VLB100 cell line (turbidity at 660 nm); assay type: cell-based, human
Procedure: (§1) Human CEM/VLB100 cells were distributed (5×10^4 cells/ml, 1 ml/well) into multiwell dishes and incubated for 5 days with 30 nM vinblastine and increasing concentrations of test compound, as indicated in the Figure. At the end of the incubation period, the turbidity values (at 660 nm) for each set of cultures were measured and expressed relative to cells that were incubated without test compound. These values represent the ability of test compound, relative to control (i.e., verapamil) to reverse CEM/VLB100 resistance to 30 nM vinblastine, as reflected by the relative amount of cell proliferation under a given set of growth conditions. Each value shown in the Figures is the average of 2 separate determinations.
II. Reversal of Vinblastine Resistance in the CEM/VLB100 Cell Line
as §1, with “The CEM/VLB100 cell line is a derivative of human CEM cells, selected for resistance to vinblastine. This cell line expresses the human MDR1 gene.” for “Human”, “FIG. 2.” for “the Figure.”, “compound” for “compound, relative to control (i.e., verapamil)”, “FIG. 2” for “the Figures”, “determinations. Results are also presented in the second data column of Table 1, wherein the ED50 values reflect the concentration of chemosensitizer that causes the Relative Turbidity value to be reduced by 50%.” for “determinations.”

[4] = read-out: ED50 ^1; S7dex1 cells, 5 days with 20 μM puromycin; chemosensitizer concentration that reduces Relative Turbidity by 50%
[5] = read-out: ED50 ^2, 5 days with 30 nM vinblastine, chemosensitizer concentration that reduces Relative Turbidity by 50%
[6] = S7dex1 cells, 5 days with 20 μM puromycin; chemosensitizer concentration that reduces Relative Turbidity by 50%; read-out: ED50 ^1
[7] = 5 days with 30 nM vinblastine, chemosensitizer concentration that reduces Relative Turbidity by 50%, read-out: ED50 ^2

Compound | IC50 [1, 4] [nM] | IC50 [2] [nM] | IC50 [3, 5] [nM] | IC50 [1, 6] [nM] | IC50 [3, 7] [nM]
C[C@]12C=CC(=O)C=C1CC[C@H]1[C@@H]3CC[C@](O)(C(=O)CO)[C@@]3(C)C[C@H](Cl)[C@@]12Cl [Dichlorisone, 1,4-pregnadiene-9α,11β-dichloro-17α-21-diol-3,20-dione, reference compound] | > 8000 | 7.5 | > 8000 |  | 
COc1ccc(CCN(C)CCCC(C#N)(c2ccc(OC)c(OC)c2)C(C)C)cc1OC (stereo not shown) [Verapainil, verapamil, reference compound] | 760 |  | 1300 |  | 
CC(=O)[C@H]1[C@H](C)C[C@H]2[C@@H]3CCC4=CC(=O)C=C[C@]4(C)[C@@]3(F)[C@@H](O)C[C@@]21C [SA 50, 1,4-Pregnadien-9αfluoro-16αmethyl-11β-ol-3 20-dione] |  | 9 |  | 530 | > 8000
C[C@@H]1C[C@H]2[C@@H]3CCC4=CC(=O)C=C[C@]4(C)[C@@]3(F)[C@@H](O)C[C@]2(C)[C@H]1C(=O)COC(=O)c1ccc(N(C)C)cc1 [SA 45, 1,4-Pregnadien-9α-fluoro-16αmethyl-11β,21-diol-3 20-dione, 21-(4-dimethylaminobenzoate)] |  | 34 |  | 360 | 2700
CC(=O)[C@H]1CC[C@H]2[C@@H]3CCC4=CC(=O)CC[C@]4(C)[C@H]3CC[C@]12C [Progesterone, reference compound] |  | 2400 |  | 1600 | > 8000
COc1ccc(C(=O)OCC(=O)[C@@]2(O)CC[C@H]3[C@@H]4CCC5=CC(=O)C=C[C@]5(C)[C@@]4(Cl)[C@@H](Cl)C[C@@]32C)cc1OC [SA 44, 1,4-Pregnadien-9α11β-dichloro-17α,21-diol-3,20-dione, 21-(3,4-dimethoxybenzoate)] |  | 14 |  | 440 | 2500
C[C@@H]1C[C@H]2[C@@H]3CCC4=CC(=O)C=C[C@]4(C)[C@@]3(F)[C@@H](O)C[C@]2(C)[C@H]1C(=O)CO [17-DOD, 1,4-Pregnadien-9α-fluoro-16α-methyl-11β,21-diol-3, 20-dione, reference compound] |  | 5.3 |  | 2700 | > 8000
C[C@@H]1C[C@H]2[C@@H]3CCC4=CC(=O)C=C[C@]4(C)[C@@]3(F)[C@@H](O)C[C@]2(C)[C@H]1C(=O)COC(=O)NCc1ccccc1 [SA 54, 1,4-Preqnadien-9αfluoro-16αmethyl-11β,21-diol-3 20-dione, 21-(N-benzylcarbamate)] |  | 250 |  | 420 | 1800
CN(C)c1ccc(C(=O)OCC(=O)[C@@]2(O)CC[C@H]3[C@@H]4CCC5=CC(=O)C=C[C@]5(C)[C@@]4(Cl)[C@@H](Cl)C[C@@]32C)cc1 [SA 47, 1,4-Pregnadien-9α,11β-dichloro-17α,21-diol-3,20-dione, 21-(4-dimethylaminogenzoate)] |  | 13 |  | 450 | 1100
COc1ccc(C(=O)OCC(=O)[C@H]2[C@H](C)C[C@H]3[C@@H]4CCC5=CC(=O)C=C[C@]5(C)[C@@]4(F)[C@@H](O)C[C@@]32C)cc1OC [SA 43, 1,4-Pregnadien-9α-fluoro-16α-methyl-11β,21-diol-3,20-dione,21-(3 ,4-dimethoxybenzoate)] |  | 18 |  |  | 1200
